{
  "source": "patent US4157347A",
  "about": "“N-cyano isothioureas” (Bristol-Myers Company, priority 1978, dated 1979)",
  "key": {"gastric acid output": {"system": "gastric acid output", "test": "Gastric antisecretory activity in the two hour pylorus ligated (Shay) rat", "type": "in vivo, rat (male Long Evans)", "from_the_text": "Determination of Gastric Antisecretory Activity in the Two Hour Pylorus Ligated (Shay) Rat\nThe pyloric ligation procedure in the rat was designed by Shay et al., Gastroenterology, 5,53 (1945) for the study of perforating gastric ulcers; however, as the method became known, it was also employed as a means of studying rat gastric secretion, Shay et al., Gastroenterology, 26, 906 (1954), Brodie, D. A., Am. J. Dig. Dis., 11, 231 (1966). A modification of this procedure is presently used to evaluate compounds for gastric antisecretory activity.\nMale Long Evans rats, 280-300 gm., are used. The animals are placed in individual cages and fasted for 24 hours with free access to water. Under ether anesthesia, the stomach is reached through a midline incision, and a cotton-thread ligature is placed around the pylorus. After wound closure, ether administration is stopped and either BL-5641, cimetidine or vehicle are administered intraperitoneally in a volume of […]. BL-5641 and cimetidine are solubilized with one equivalent of HCl and brought to the proper volume with water. The animals are returned to their cages from which the water bottles have been removed and two hours later are sacrificed with ether. The stomach is removed and the two hour gastric collection is drained into a graduated test tube for volume determination. Titratable acidity is measured by titrating a one ml. sample to pH 7.0 with 0.02 N NaOH, using an Autoburet and an electrometric pH meter (Radiometer). Titratable acid output is calculated in microequivalents by multiplying the volume in milliliters by the acid concentration in milliequivalents per liter. The percent inhibition of acid output is calculated as follows [formula]"}, "peptic ulcer disease": {"system": "peptic ulcer disease", "conditions": "clinical evaluation, in words; cited from earlier work"}, "[1]": {"system": "histamine-induced gastric acid output", "test": "Gastric antisecretory activity in the gastric fistula dog (histamine-induced gastric acid output)", "type": "in vivo, dog (beagle)", "experimental": "Determination of Gastric Antisecretory Activity in the Gastric Fistula Dog\nThomas type [Thomas, J. E., Proc. Soc. exp. Biol. Med., 46, 260 (1941)] stainless steel cannulae are inserted into the stomachs of beagle dogs (10-12 kg.) just orad to the pyloric gland area near the greater curvature to provide a chronic gastric fistula. Animals are allowed to recover for at least two months before any testing is done. Dogs are fasted overnight (~18 hours) with water ad lib prior to each experiment. The dogs are placed in a sling and an eight inch inside needle catheter (C. R. Baird, Inc.) with a two inch 17 gauge needle is inserted into a leg vein for purposes of drug administration. Gastric secretions are collected every 15 minutes by gravity drainage from the opened cannula. […] A modification of the procedure described by Grossman and Konturek, Gastroenterology, 66, 517 (1974) was followed. […] Each 15 minute sample of gastric juice is measured to the nearest 0.5 ml. and titratable acidity against 0.02 N NaOH (endpoint pH 7.0) is measured with an Autoburet and pH meter (radiometer). The percent inhibition of acid output is calculated as described in the pylorus ligated rat procedure."}, "[2]": {"conditions": "in words; cited from earlier work"}, "histamine H2-receptors": {"biological_target": "T1, histamine H2-receptors (Cavia porcellus, UniProt P47747)", "T1 construct": "The spontaneously beating right atrium was dissected free from other tissues; from tissue; host or cells: isolated spontaneously beating right atrium of male Hartley guinea pigs", "T1 sequence (P47747 whole entry)": "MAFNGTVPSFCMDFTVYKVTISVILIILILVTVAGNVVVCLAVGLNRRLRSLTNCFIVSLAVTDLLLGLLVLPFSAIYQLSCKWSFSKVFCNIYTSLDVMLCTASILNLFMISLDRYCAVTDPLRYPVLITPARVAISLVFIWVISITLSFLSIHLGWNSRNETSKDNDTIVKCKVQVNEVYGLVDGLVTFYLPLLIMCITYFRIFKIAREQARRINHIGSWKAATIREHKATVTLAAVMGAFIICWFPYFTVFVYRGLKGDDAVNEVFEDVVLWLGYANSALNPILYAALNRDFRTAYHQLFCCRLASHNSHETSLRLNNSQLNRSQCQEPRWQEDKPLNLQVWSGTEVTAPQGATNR", "test": "Histamine H2-receptor antagonism, isolated guinea pig right atria assay", "type": "cell-based", "experimental": "Subsequent investigations by Hughes and Coret, Proc. Soc. […] Black et al., Agents and Actions, 3, 133 (1973) and Brimblecombe et al., Fed. […] The present comparative studies were carried out using a modification of the procedure reported by Reinhardt et al., Agents and Actions, 4, 217 (1974).\nMale Hartley strain guinea pigs (350-450 gm.) were sacrificed by a blow on the head. The heart was excised and placed in a Petri dish of oxygenated (95% O2, 5% CO2) modified Krebs solution (g./liter: NaCl 6.6, KCl 0.35, MgSO4.7 H2 O 0.295, KH2 PO4 0.162, CaCl2 0.238, NaHCO3 2.1 and dextrose 2.09). The spontaneously beating right atrium was dissected free from other tissues and a silk thread (4-0) attached to each end. The atrium was suspended in a 20 ml. muscle chamber containing oxygenated modified Krebs solution maintained at 32° C. Atrial contractions were recorded isometrically by means of a Grass FT 0.03 force displacement transducer and recordings of contractile force and rate were made with a Beckman RP Dynograph.\nA resting tension of 1 g. was applied to the atrium and it was allowed to equilibrate for 1 hour.\nConcentration-response curve displacement factors were calculated as follows: [formula] The factor obtained for BL-5641 was then expressed as a ratio of the factor obtained for cimetidine. [formula]"}, "[3]": {"conditions": "clinical, in words; cited from earlier work"}, "H2 receptors": {"system": "H2 receptors", "conditions": "in words; cited from earlier work"}},
  "data": [
    {"molecule": "CNC(=NC#N)NCCSCc1[nH]cnc1C", "note": "[Cimetidine]", "values": [
      {"measurement": "% Inhibition of Acid Output", "setting": "gastric acid output; 5 μMole/kg. ip, 2 h (cimetidine 1.25 mg/kg)", "value": 34, "unit": "%"},
      {"measurement": "% Inhibition of Acid Output", "setting": "gastric acid output; 10 μMole/kg. ip, 2 h (BL-5641 2.76 mg/kg; cimetidine 2.5 mg/kg)", "value": 40, "unit": "%"},
      {"measurement": "% Inhibition of Acid Output", "setting": "gastric acid output; 20 μMole/kg. ip, 2 h (BL-5641 5.53 mg/kg; cimetidine 5 mg/kg)", "value": 60, "unit": "%"},
      {"measurement": "% Inhibition of Acid Output", "setting": "gastric acid output; 40 μMole/kg. ip, 2 h (BL-5641 11.1 mg/kg; cimetidine 10 mg/kg)", "value": 66, "unit": "%"},
      {"measurement": "ED50", "setting": "gastric acid output; Rattus norvegicus, ip, 2 h, read-out: ED50 (inhibition of acid output)", "value": "~14", "unit": "µmol/kg"},
      {"measurement": "therapeutic effect in peptic ulcer disease", "setting": "peptic ulcer disease", "value": "effective therapeutic agent in the treatment of peptic ulcer disease"},
      {"measurement": "% Inhibition Acid Output", "setting": "[1]; 0.75 μM/kg. iv, 15 min, dog 23553, N=1", "value": 50, "unit": "%"},
      {"measurement": "% Inhibition Acid Output", "setting": "[1]; 0.75 μM/kg. iv, 30 min, dog 23553, N=1", "value": 10, "unit": "%"},
      {"measurement": "% Inhibition Acid Output", "setting": "[1]; 0.75 μM/kg. iv, 45 min, dog 23553, N=1", "value": 24, "unit": "%"},
      {"measurement": "% Inhibition Acid Output", "setting": "[1]; 0.75 μM/kg. iv, 60 min, dog 23553, N=1", "value": 17, "unit": "%"},
      {"measurement": "% Inhibition Acid Output", "setting": "[1]; 0.75 μM/kg. iv, 75 min, dog 23553, N=1", "value": 35, "unit": "%"},
      {"measurement": "% Inhibition Acid Output", "setting": "[1]; 0.75 μM/kg. iv, 90 min, dog 23553, N=1", "value": 27, "unit": "%"},
      {"measurement": "% Inhibition Acid Output", "setting": "[1]; 0.75 μM/kg. iv, 105 min, dog 23553, N=1", "value": 25, "unit": "%"},
      {"measurement": "% Inhibition Acid Output", "setting": "[1]; 0.75 μM/kg. iv, 120 min, dog 23553, N=1", "value": 19, "unit": "%"},
      {"measurement": "% Inhibition Acid Output", "setting": "[1]; 1.5 μM/kg. iv, 15 min, dog 24895, N=1", "value": 73, "unit": "%"},
      {"measurement": "% Inhibition Acid Output", "setting": "[1]; 1.5 μM/kg. iv, 30 min, dog 24895, N=1", "value": 57, "unit": "%"},
      {"measurement": "% Inhibition Acid Output", "setting": "[1]; 1.5 μM/kg. iv, 45 min, dog 24895, N=1", "value": 60, "unit": "%"},
      {"measurement": "% Inhibition Acid Output", "setting": "[1]; 1.5 μM/kg. iv, 60 min, dog 24895, N=1", "value": 29, "unit": "%"},
      {"measurement": "% Inhibition Acid Output", "setting": "[1]; 1.5 μM/kg. iv, 75 min, dog 24895, N=1", "value": 0, "unit": "%"},
      {"measurement": "% Inhibition Acid Output", "setting": "[1]; 1.5 μM/kg. iv, 90 min, dog 24895, N=1", "value": 18, "unit": "%"},
      {"measurement": "% Inhibition Acid Output", "setting": "[1]; 1.5 μM/kg. iv, 105 min, dog 24895, N=1", "value": 0, "unit": "%"},
      {"measurement": "% Inhibition Acid Output", "setting": "[1]; 1.5 μM/kg. iv, 120 min, dog 24895, N=1", "value": 0, "unit": "%"},
      {"measurement": "% Inhibition Acid Output", "setting": "[1]; 3 μM/kg. iv, 15 min, dog 23606, N=1", "value": 43, "unit": "%"},
      {"measurement": "% Inhibition Acid Output", "setting": "[1]; 3 μM/kg. iv, 30 min, dog 23606, N=1", "value": 27, "unit": "%"},
      {"measurement": "% Inhibition Acid Output", "setting": "[1]; 3 μM/kg. iv, 45 min, dog 23606, N=1", "value": 15, "unit": "%"},
      {"measurement": "% Inhibition Acid Output", "setting": "[1]; 3 μM/kg. iv, 60 min, dog 23606, N=1", "value": 0, "unit": "%"},
      {"measurement": "% Inhibition Acid Output", "setting": "[1]; 3 μM/kg. iv, 75 min, dog 23606, N=1", "value": 17, "unit": "%"},
      {"measurement": "% Inhibition Acid Output", "setting": "[1]; 3 μM/kg. iv, 90 min, dog 23606, N=1", "value": 38, "unit": "%"},
      {"measurement": "% Inhibition Acid Output", "setting": "[1]; 3 μM/kg. iv, 105 min, dog 23606, N=1", "value": 8, "unit": "%"},
      {"measurement": "% Inhibition Acid Output", "setting": "[1]; 3 μM/kg. iv, 120 min, dog 23606, N=1", "value": 0, "unit": "%"},
      {"measurement": "% Inhibition Acid Output", "setting": "[1]; 6 μM/kg. iv, 15 min, dog 22619, N=1", "value": 84, "unit": "%"},
      {"measurement": "% Inhibition Acid Output", "setting": "[1]; 6 μM/kg. iv, 30 min, dog 22619, N=1", "value": 96, "unit": "%"},
      {"measurement": "% Inhibition Acid Output", "setting": "[1]; 6 μM/kg. iv, 45 min, dog 22619, N=1", "value": 73, "unit": "%"},
      {"measurement": "% Inhibition Acid Output", "setting": "[1]; 6 μM/kg. iv, 60 min, dog 22619, N=1", "value": 67, "unit": "%"},
      {"measurement": "% Inhibition Acid Output", "setting": "[1]; 6 μM/kg. iv, 75 min, dog 22619, N=1", "value": 65, "unit": "%"},
      {"measurement": "% Inhibition Acid Output", "setting": "[1]; 6 μM/kg. iv, 90 min, dog 22619, N=1", "value": 54, "unit": "%"},
      {"measurement": "% Inhibition Acid Output", "setting": "[1]; 6 μM/kg. iv, 105 min, dog 22619, N=1", "value": 40, "unit": "%"},
      {"measurement": "% Inhibition Acid Output", "setting": "[1]; 6 μM/kg. iv, 120 min, dog 22619, N=1", "value": 32, "unit": "%"},
      {"measurement": "% Inhibition Acid Output", "setting": "[1]; 12 μM/kg. iv, 15 min, dog 24136, N=1", "value": 63, "unit": "%"},
      {"measurement": "% Inhibition Acid Output", "setting": "[1]; 12 μM/kg. iv, 30 min, dog 24136, N=1", "value": 99, "unit": "%"},
      {"measurement": "% Inhibition Acid Output", "setting": "[1]; 12 μM/kg. iv, 45 min, dog 24136, N=1", "value": 89, "unit": "%"},
      {"measurement": "% Inhibition Acid Output", "setting": "[1]; 12 μM/kg. iv, 60 min, dog 24136, N=1", "value": 76, "unit": "%"},
      {"measurement": "% Inhibition Acid Output", "setting": "[1]; 12 μM/kg. iv, 75 min, dog 24136, N=1", "value": 54, "unit": "%"},
      {"measurement": "% Inhibition Acid Output", "setting": "[1]; 12 μM/kg. iv, 90 min, dog 24136, N=1", "value": 48, "unit": "%"},
      {"measurement": "% Inhibition Acid Output", "setting": "[1]; 12 μM/kg. iv, 105 min, dog 24136, N=1", "value": 41, "unit": "%"},
      {"measurement": "% Inhibition Acid Output", "setting": "[1]; 12 μM/kg. iv, 120 min, dog 24136, N=1", "value": 14, "unit": "%"},
      {"measurement": "onset of effect on gastric acid output", "setting": "[1]; iv, in words", "value": "immediate inhibitory effect on gastric acid output"},
      {"measurement": "half-life", "setting": "[2]", "value": "relatively short"},
      {"measurement": "Activity Ratio", "setting": "histamine H2-receptors", "value": 1.0},
      {"measurement": "Histamine ED50 With 95% Confidence Limits", "setting": "histamine H2-receptors; histamine ED50 in presence of test compound 1 × 10^-5 M, 30 min incubation", "value": 1.39, "unit": "µg/mL"},
      {"measurement": "Concentration-Response Curve Displacement Factor", "setting": "histamine H2-receptors; test compound 1 × 10^-5 M", "value": 6.6},
      {"measurement": "toxicity (agranulocytosis)", "setting": "[3]", "value": "without producing agranulocytosis"},
      {"measurement": "H2 antagonist potency/effectiveness", "setting": "H2 receptors", "value": "as effective an H2 antagonist as metiamide"}
    ]}
  ]
}
